Columns and labels:
Format in all cases: in vivo
[1] = test system: Beet Armyworm (Spodoptera exigua, LAPHEG); experiment: Bioassays on Beet Armyworm (BAW), 128-well diet tray assay; conditions: Spodoptera exigua; Table ABC: Biological Results; species BAW; read-out: BAW
Procedure, shortened: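 Diet-overlay assay: 50 μg/cm^2 compound applied in 90:10 acetone-water to artificial diet, allowed to dry, then infested with 1–5 L2 larvae/well; 8 wells/compound; covered, vented; 25° C., 14:10 L:D, 5–7 d; % mortality per well, averaged.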

[2] = test system: Cabbage Looper (Trichoplusia ni, TRIPNI); experiment: Bioassays on Cabbage Looper (CL), 128-well diet tray assay; conditions: Trichoplusia ni; Table ABC: Biological Results; species CL; read-out: CL
Procedure, shortened: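 Percent mortality, averaged across eight replicate wells, after second-instar larvae (1–5 per well) fed for five to seven days on diet dosed at 50 μg/cm^2. Compound was applied in acetone-water 90:10 and dried; trays kept vented at 25° C under 14:10 photoperiod.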

[3] = test system: Yellow Fever Mosquito (Aedes aegypti, AEDSAE); conditions: Table ABC: Biological Results; species YFM
Procedure, shortened: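 Compounds from DMSO master plates (4000 ppm stock) diluted in 90:10 water/acetone, then dispensed into six replicate plates and infested with ~1-day-old Aedes aegypti larvae in liver-powder water. Held covered at room temperature for 3 days; each well scored for larval mortality and graded on a rating scale.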

Structure (SMILES) | pest or weed control at 50 µg/cm2 [1] [%] | pest or weed control at 50 µg/cm2 [2] [%] | YFM [3]
O=C(Nc1ccc(F)cc1F)c1cc(NC(=O)[C@H]2[C@H](c3ccc(I)cc3)C2(Cl)Cl)ccc1Cl (relative stereo) [F1087, trans-2-Chloro-5-(2,2-dichloro-3-(4-iodophenyl)cyclopropane-1-carboxamido)-N-(2,4-difluorophenyl)benzamide] | 50 to 100 | 50 to 100 | A (80–100)
O=C(Nc1ccc(F)cc1F)c1cc(NC(=O)[C@H]2[C@H](c3cccc(I)c3)C2(Cl)Cl)ccc1Cl (relative stereo) [F1088, trans-2-Chloro-5-(2,2-dichloro-3-(3-iodophenyl)cyclopropane-1-carboxamido)-N-(2,4-difluorophenyl)benzamide] | 50 to 100 | 50 to 100 | A (80–100)
O=C(Nc1ccc(F)cc1F)c1cc(NC(=O)[C@H]2[C@H](c3cccc(S(F)(F)(F)(F)F)c3)C2(Cl)Cl)ccc1Cl (relative stereo) [F1090, trans-2-Chloro-5-(2,2-dichloro-3-(3-(pentafluoro-λ^6-sulfanyl)phenyl)cyclopropane-1-carboxamido)-N-(2,4-difluorophenyl)benzamide] | 50 to 100 | 50 to 100 | A (80–100)
O=C(Nc1ccc(F)cc1F)c1cc(NC(=O)[C@H]2[C@@H](c3cc(F)cc(Br)c3F)C2(Cl)Cl)ccc1Cl (relative stereo) [F1094, cis-5-(3-(3-Bromo-2,5-difluorophenyl)-2,2-dichlorocyclopropane-1-carboxamido)-2-chloro-N-(2,4-difluorophenyl)benzamide] | 50 to 100 | 50 to 100 | A (80–100)
COc1ccc(CNc2c(F)ccc(NC(=O)c3cc(NC(=O)[C@H]4[C@H](c5ccc(F)c(C(F)(F)F)c5)C4(Cl)Cl)ccc3Cl)c2F)cc1 (relative stereo) [F1096, trans-2-Chloro-5-(2,2-dichloro-3-(4-fluoro-3-(trifluoromethyl)phenyl)cyclopropane-1-carboxamido)-N-(2,4-difluoro-3-((4-methoxybenzyl)amino)phenyl)benzamide] | 50 to 100 | 50 to 100 | A (80–100)
O=C(Nc1ccc(F)cc1)c1c(F)ccc(NC(=O)[C@H]2[C@H](c3ccc(F)c(Cl)c3)C2(Cl)Cl)c1F (relative stereo) [F1100, trans-3-(2,2-Dichloro-3-(3-chloro-4-fluorophenyl)cyclopropane-1-carboxamido)-2,6-difluoro-N-(4-fluorophenyl)benzamide] | 50 to 100 | 50 to 100 | A (80–100)
O=C(Nc1ccccc1)c1c(Cl)ccc(NC(=O)[C@H]2[C@H](c3ccc(F)c(Cl)c3)C2(Cl)Cl)c1Cl (relative stereo) [F1104, trans-2,6-Dichloro-3-(2,2-dichloro-3-(3-chloro-4-fluorophenyl)cyclopropane-1-carboxamido)-N-phenylbenzamide] | 50 to 100 | 50 to 100 | A (80–100)
CN(C(=O)c1cc(NC(=O)[C@H]2[C@H](c3ccc(F)c(C(F)(F)F)c3)C2(Cl)Cl)ccc1Cl)c1ccc(F)c(N)c1F (relative stereo) [F1112, trans-N-(3-amino-2,4-difluorophenyl)-2-chloro-5-(2,2-dichloro-3-(4-fluoro-3-(trifluoromethyl)phenyl)cyclopropane-1-carboxamido)-N-methylbenzamide] | 50 to 100 | 50 to 100 | A (80–100)
C=CCN(C(=O)c1cc(NC(=O)[C@H]2[C@H](c3ccc(F)c(C(F)(F)F)c3)C2(Cl)Cl)ccc1Cl)c1ccc(F)c(N)c1F (relative stereo) [F1113, trans-N-Allyl-N-(3-amino-2,4-difluorophenyl)-2-chloro-5-(2,2-dichloro-3-(4-fluoro-3-(trifluoromethyl)phenyl)cyclopropane-1-carboxamido)benzamide] | 50 to 100 | 50 to 100 | A (80–100)
C#CCN(C(=O)c1cc(NC(=O)[C@H]2[C@H](c3ccc(F)c(C(F)(F)F)c3)C2(Cl)Cl)ccc1Cl)c1ccc(F)c(N)c1F (relative stereo) [F1114, trans-N-(3-Amino-2,4-difluorophenyl)-2-chloro-5-(2,2-dichloro-3-(4-fluoro-3-(trifluoromethyl)phenyl)cyclopropane-1-carboxamido)-N-(prop-2-yn-1-yl)benzamide] | 50 to 100 | 50 to 100 | A (80–100)
Nc1c(F)ccc(NC(=O)c2cc(NC(=O)[C@H]3[C@H](c4ccc(Br)c(C(F)(F)F)c4)C3(Cl)Cl)ccc2Cl)c1F (relative stereo) [F1116, trans-N-(3-Amino-2,4-difluorophenyl)-5-(3-(4-bromo-3-(trifluoromethyl)phenyl)-2,2-dichlorocyclopropane-1-carboxamido)-2-chlorobenzamide] | 50 to 100 | 50 to 100 | A (80–100)
Cc1cc(NCc2ccc(OC(F)(F)F)cc2)ccc1NC(=O)c1cc(NC(=O)[C@H]2[C@H](c3cc(Cl)cc(Cl)c3)C2(Cl)Cl)ccc1Cl (relative stereo) [F1117, trans-2-Chloro-5-(2,2-dichloro-3-(3,5-dichlorophenyl)cyclopropane-1-carboxamido)-N-(2-methyl-4-((4-(trifluoromethoxy)benzyl)amino)phenyl)benzamide] | 50 to 100 | 50 to 100 | A (80–100)
O=C(Nc1ccc(F)cc1F)c1cc(NC(=O)[C@H]2[C@H](c3cc(Cl)cc(C(F)(F)F)c3)C2(Cl)Cl)ccc1Cl (relative stereo) [F1118, trans-2-Chloro-5-(2,2-dichloro-3-(3-chloro-5-(trifluoromethyl)phenyl)cyclopropane-1-carboxamido)-N-(2,4-difluorophenyl)benzamide] | 50 to 100 | 50 to 100 | A (80–100)
CC(C)(C)OC(=O)Nc1c(F)ccc(NC(=O)c2cc(NC(=O)[C@H]3[C@H](c4cc(Cl)cc(C(F)(F)F)c4)C3(Cl)Cl)ccc2Cl)c1F (relative stereo) [F1119, trans-tert-Butyl-(3-(2-chloro-5-(2,2-dichloro-3-(3-chloro-5-(trifluoromethyl)phenyl)cyclopropane-1-carboxamido)benzamido)-2,6-difluorophenyl)carbamate] | 50 to 100 | 50 to 100 | A (80–100)
Nc1c(F)ccc(NC(=O)c2cc(NC(=O)[C@H]3[C@H](c4cc(Cl)cc(C(F)(F)F)c4)C3(Cl)Cl)ccc2Cl)c1F (relative stereo) [F1127, trans-N-(3-Amino-2,4-difluorophenyl)-2-chloro-5-(2,2-dichloro-3-(3-chloro-5-(trifluoromethyl)phenyl)cyclopropane-1-carboxamido)benzamide] | 50 to 100 | 50 to 100 | A (80–100)
